Measurements reported in patent publication US9730449B2, “Thiazole compound and its use in pest control” (Sumitomo Chemical Company, Limited, priority 2014, dated 2017).
Where two headings read alike, the source gives them in different places.

Experiments:
[1] = system: gambiae sensu stricto (Anopheles gambiae); assay: whole plant or invertebrate; type: in vivo; conditions: 48 h, 167 ppm in acetone, 0.3 μl topically applied to chest back plate of females, 2 days after the topical application
Method: 10 mg of each of the compounds (1a-1), (1a-2), (1a-4), (1a-5), (1a-6), (1a-7), (1a-19), (1a-20), (1a-22), (1a-23), (1a-32), (1a-38), (1a-39), (1a-77), (1b-1), and (1b-2) of the present invention was dissolved in 3 ml of acetone. Test solutions were prepared by diluting each of the above solutions 20-fold with acetone (concentration of active ingredients of 167 ppm). […] The test was performed on 10 imagos per group, after the topical application, the imagos were transferred to a cup, and 5 percent sugar water was given.

[2] = system: German cockroaches (Blattella germanica); conditions: 500 ppm, 0.7 ml on filter paper, sucrose bait; male imagoes; after 24 hours
[3] = system: diamondback moths (Plutella xylostella); conditions: 500 ppm test solution, 20 ml scattered on cabbage; second-instar larvae; 25° C.; after 5 days
Method: 20 ml of the above-described test solution was scattered on cabbages (Brassicae oleracea) in a third- or fourth-leaf stage. After air-drying the test solution, the overground portion was cut, collected, and accommodated in a polyethylene cup (capacity of 100 ml) together with 5 second-instar larvae of diamondback moths (Plutella xylostella), followed by storing at 25° C.

[4] = system: common house mosquito (Culex pipiens pallens); assay: whole plant or invertebrate; type: in vivo; conditions: concentration of active ingredients of 3.5 ppm in ion exchange water, final-instar larvae, after 24 hours
[5] = system: common houseflies (Musca domestica); conditions: 500 ppm, 0.7 ml on filter paper, sucrose bait; female imagoes; after 24 hours
Excerpt: 10 female imagoes of common houseflies (Musca domestica) were released in the polyethylene cup, which was then covered with a lid.

[6] = system: German cockroaches (Blattella germanica); assay: whole plant or invertebrate
Excerpt: 2 male imagoes of German cockroaches (Blattella germanica) were released in the polyethylene cup, which was then covered with a lid.

[7] = system: two-spotted spider mite (Tetranychus urticae); assay: Test Example 6: kidney bean spray, two-spotted spider mite controlling value; type: in vivo; conditions: 500 ppm sprayed on kidney beans; female imagoes; 25° C.; 7 days after the treatment
Excerpt: 10 female imagoes of two-spotted spider mite (Tetranychus urticae) were released on kidney beans immediately after the primary leaf development. The next day, the test solution was sprayed at an amount in which the test solution dripped, using a spray gun. […] Controlling value (%)=(1−the number of surviving female imagoes in a treatment section/the number of surviving female imagoes in a non-treatment section)×100

Compound `COc1ccccc1COc1ncc([S+](C)[O-])s1` (centres unmarked) [Compound 1b-1, 2-(2-methoxybenzyloxy)-5-methylsulfinylthiazole] has a mortality at 167 ppm [1] of no less than 90%.

Work on `CSc1cnc(OCc2c(C)cccc2F)s1` [Compound 1a-16] yielded a Mortality [2] of 100%.

`CSc1cnc(OCc2cccnc2)s1` [Compound 1a-9] gave a Mortality [3] of no less than 80%.

`CCSc1cnc(OCc2ccccc2C)s1` [Compound 1a-201, 2-(2-methylbenzyloxy)-5-ethylthiothiazole] gave a mortality at 3.5 ppm [4] of no less than 90%.

`CSc1cnc(OCc2ccoc2)s1` [Compound 1a-75] showed a Mortality [5] of 100%.

`CSc1cnc(OCc2cc(F)ccc2C)s1` [Compound 1a-19] gave a Mortality ([6]; 500 ppm, 0.7 ml on filter paper, sucrose bait, male imagoes, after 6 days) of 100%.

`COc1ccc(F)cc1COc1ncc(SC)s1` [Compound 1a-23] showed a Mortality [5] of 100%.

`COc1ccccc1COc1nc(C)c(SC)s1` [Compound 1a-6] showed a Controlling value [7] of no less than 90%.

With `CSc1cnc(OCc2cscc2C)s1` [Compound 1a-20] the Mortality [2] was 100%.

In the case of `COc1ccccc1COc1ncc(SC)s1` [Compound 1a-1, 2-(2-methoxybenzyloxy)-5-methylthiothiazole], the mortality at 500 ppm ([6]; Blattella germanica, 144 h) is reported as 100%, the mortality at 3.5 ppm [4] is reported as no less than 90% and the mortality at 167 ppm [1] is reported as no less than 90%.

`CSc1cnc(OCc2ccccc2C)s1` [Compound 1a-2] showed a Mortality [2] of 100%.

`COc1ccc(OC)c(COc2ncc(SC)s2)c1` [Compound 1a-24] showed a Mortality [5] of 100%.
